How the values were obtained:
Type in all cases: in vivo
Conditions in all cases: evaluated after 13 days
[1] = test system: Alopecurus myosuroides (ALOMY); test: Post-emergence herbicidal activity, Alopecurus myosuroides; parameters: key: 5=total damage to plant; 0=no damage to plant
Experimental: (§1) Seeds of a variety of test species were sown in standard soil in pots: Triticum aestivium (TRZAW), Avena fatua (AVEFA), Alopecurus myosuroides (ALOMY), Echinochloa crus-galli (ECHCG), Lolium perenne (LOLPE), Zea Mays (ZEAMX), Abutilon theophrasti (ABUTH), Amaranthus retroflexus (AMARE) and Setaria faberi (SETFA). After 8 days cultivation (post-emergence) under controlled conditions in a glasshouse (at 24/16° C., day/night; 14 hours light; 65% humidity), the plants were sprayed with an aqueous spray solution derived from the formulation of the technical active ingredient in acetone/water (50:50) solution containing 0.5% Tween 20 (polyoxyethelyene sorbitan monolaurate, CAS RN 9005-64-5). The test plants were then grown in a glasshouse under controlled conditions (at 24/16° C., day/night; 14 hours light; 65% humidity) and watered twice daily. After 13 days, the test was evaluated (5=total damage to plant; 0=no damage to plant).

[2] = test system: Echinochloa crus-galli (ECHCG); test: Post-emergence herbicidal activity, Echinochloa crus-galli; parameters: key: 5=total damage to plant; 0=no damage to plant
Experimental: as §1

Lolium perenne (LOLPE) [3] = test: Post-emergence herbicidal activity, Lolium perenne; parameters: key: 5=total damage to plant; 0=no damage to plant
Experimental: as §1

Avena fatua (AVEFA) [4] = test: Post-emergence herbicidal activity, Avena fatua
Experimental: as §1

Lolium perenne (LOLPE) [5] = test: Pre-emergence herbicidal activity, Lolium perenne; parameters: key: 5=total damage to plant; 0=no damage to plant
Experimental: (§2) Seeds of a variety of test species were sown in standard soil in pots: Triticum aestivium (TRZAW), Avena fatua (AVEFA), Alopecurus myosuroides (ALOMY), Echinochloa crus-galli (ECHCG), Lolium perenne (LOLPE), Zea Mays (ZEAMX), Abutilon theophrasti (ABUTH), Amaranthus retroflexus (AMARE) and Setaria faberi (SETFA). After cultivation for one day (pre-emergence) under controlled conditions in a glasshouse (at 24/16° C., day/night; 14 hours light; 65% humidity), the plants were sprayed with an aqueous spray solution derived from the formulation of the technical active ingredient in acetone/water (50:50) solution containing 0.5% Tween 20 (polyoxyethelyene sorbitan monolaurate, CAS RN 9005-64-5). The test plants were then grown in a glasshouse under controlled conditions (at 24/16°, day/night; 14 hours light; 65% humidity) and watered twice daily. After 13 days, the test was evaluated (5=total damage to plant; 0=no damage to plant).

Setaria faberi (SETFA) [6] = test: Post-emergence herbicidal activity, Setaria faberi; parameters: key: 5=total damage to plant; 0=no damage to plant
Experimental: as §1

[7] = test system: Echinochloa crus-galli (ECHCG); test: Pre-emergence herbicidal activity, Echinochloa crus-galli; parameters: key: 5=total damage to plant; 0=no damage to plant
Experimental: as §2

[8] = test system: Alopecurus myosuroides (ALOMY); test: Pre-emergence herbicidal activity, Alopecurus myosuroides; parameters: key: 5=total damage to plant; 0=no damage to plant
Experimental: as §2

[9] = test system: Triticum aestivium (TRZAW); test: Post-emergence herbicidal activity, Triticum aestivium; parameters: key: 5=total damage to plant; 0=no damage to plant
Experimental: as §1

Avena fatua (AVEFA) [10] = test: Pre-emergence herbicidal activity, Avena fatua; parameters: key: 5=total damage to plant; 0=no damage to plant
Experimental: as §2

[11] = test system: Triticum aestivium (TRZAW); test: Pre-emergence herbicidal activity, Triticum aestivium; parameters: key: 5=total damage to plant; 0=no damage to plant
Experimental: as §2

Setaria faberi (SETFA) [12] = test: Pre-emergence herbicidal activity, Setaria faberi; parameters: key: 5=total damage to plant; 0=no damage to plant
Experimental: as §2

| SMILES | Control of ALOMY after post-emergence application (score 0-5) ([1]; 1000 g/ha) | Control of ECHCG after post-emergence application (score 0-5) ([2]; 1000 g/ha) | Control of LOLPE after post-emergence application (score 0-5) (Lolium perenne (LOLPE) [3]; 1000 g/ha) | Control of AVEFA after post-emergence application (score 0-5) (Avena fatua (AVEFA) [4]; 1000 g/ha) | Control of LOLPE after pre-emergence application (score 0-5) (Lolium perenne (LOLPE) [5]; 1000 g/ha) | Control of SETFA after post-emergence application (score 0-5) (Setaria faberi (SETFA) [6]; 1000 g/ha) | Control of ECHCG after pre-emergence application (score 0-5) ([7]; 1000 g/ha) | Control of ALOMY after pre-emergence application (score 0-5) ([8]; 1000 g/ha) | Control of TRAZW after post-emergence application (score 0-5) ([9]; 1000 g/ha) | Control of AVEFA after pre-emergence application (score 0-5) (Avena fatua (AVEFA) [10]; 1000 g/ha) | Control of TRAZW after pre-emergence application (score 0-5) ([11]; 1000 g/ha) | Control of SETFA after pre-emergence application (score 0-5) (Setaria faberi (SETFA) [12]; 1000 g/ha) | other results |
| --- | --- | --- | --- | --- | --- | --- | --- | --- | --- | --- | --- | --- | --- |
| O=C(Nc1ccc(-c2cncc(F)c2)nc1C(F)(F)F)N1CCS(=O)(=O)C1 [Compound B116, N-[6-(5-fluoro-3-pyridyl)-2-(trifluoromethyl)-3-pyridyl]-1,1-dioxo-1,3-thiazolidine-3-carboxamide] | 1 | 4 | 3 | 3 | 1 | 5 | 4 | 0 | 1 | 2 | 0 | 5 | – |
| CC(C)(C)OC(=O)N(C(=O)OC(C)(C)C)c1ccc(-c2cncc(F)c2)nc1C(F)(F)F [Compound B113] | 1 | 5 | 3 | 4 | 1 | 5 | 5 | 1 | 2 | 3 | 0 | 5 | – |
| CN(C(=O)N1CCOCC1)c1ccc(-c2cncc(F)c2)nc1C(F)(F)F [Compound B67] | 1 | 4 | 1 | 2 | 1 | 4 | 3 | 0 | 1 | 0 | 0 | 4 | – |
| CC(C)(C)OC(=O)Nc1ccc(-c2cncc(F)c2)nc1-c1ccccc1 [Compound B112, tert-butyl N-[6-(5-fluoro-3-pyridyl)-2-phenyl-3-pyridyl]carbamate] | 0 | 1 | 0 | 1 | 0 | 3 | 3 | 0 | 0 | 0 | 0 | 4 | – |
| CC(C)(C)CNC(=O)Nc1ccc(-c2cncc(F)c2)nc1C(F)(F)F [Compound B107] | – | – | – | – | – | – | – | – | – | – | – | – | Control of ALOMY after post-emergence application (score 0-5) ([1]; 250 g/ha): 0; Control of ECHCG after post-emergence application (score 0-5) ([2]; 250 g/ha): 3; Control of LOLPE after post-emergence application (score 0-5) (Lolium perenne (LOLPE) [3]; 250 g/ha): 1; Control of AVEFA after post-emergence application (score 0-5) (Avena fatua (AVEFA) [4]; 250 g/ha): 3; Control of LOLPE after pre-emergence application (score 0-5) (Lolium perenne (LOLPE) [5]; 250 g/ha): 3; Control of SETFA after post-emergence application (score 0-5) (Setaria faberi (SETFA) [6]; 250 g/ha): 5; Control of ECHCG after pre-emergence application (score 0-5) ([7]; 250 g/ha): 3; Control of ALOMY after pre-emergence application (score 0-5) ([8]; 250 g/ha): 1; Control of TRAZW after post-emergence application (score 0-5) ([9]; 250 g/ha): 0; Control of AVEFA after pre-emergence application (score 0-5) (Avena fatua (AVEFA) [10]; 250 g/ha): 1; Control of TRAZW after pre-emergence application (score 0-5) ([11]; 250 g/ha): 1; Control of SETFA after pre-emergence application (score 0-5) (Setaria faberi (SETFA) [12]; 250 g/ha): 4 |

— patent US20210127673A1, “HERBICIDES” (SYNGENTA PARTICIPATIONS AG, priority 2016, published 2021)
